Data: article PMC6368337, “GluClR-mediated inhibitory postsynaptic currents reveal targets for ivermectin and potential mechanisms of ivermectin resistance” (PLoS Pathogens, 2019)

Tests used:
[1] = tested on: Untransfected HEK293 cells; assay: Fluorescence recovery after photobleaching (FRAP), lateral membrane diffusion; conditions: in cell membrane
Description: The second experiment was aimed at determining the lateral membrane diffusion properties of IVM using the fluorescence recovery after photobleaching (FRAP) technique. After a 30-min equilibration time, 5 cells were monitored for fluorescence recovery within a bleached circular patch of membrane of 3.7 μm diameter (Fig 8C). Any bleaching and recovery of the surrounding area of the cell was measured, using a similar circular patch and used to correct the recovery rate of the membrane delineated by the bleached area. We also noted that the recovery reached 98 ± 2% of control. The time constant (τ) for recovery of 1.3 minutes was used to calculate the diffusion coefficient (D), using the radius (r) of the bleached patch, according to D = r^2/4τ. The calculated value of D was 1.1 x 10^−2 μm^2s^−1. Over the course of 1 s, the IVM-bdpy probe would traverse 0.2 μm along the membrane surface (lateral diffusion rate of 0.2 μms^−1). […] We infer that this slow lateral diffusion rate coupled to membrane partitioning are the major contributors to local increases of IVM around its target binding sites and the slow quasi-irreversible actions of IVM at GluClRs.
Membrane partitioning and FRAP experiments were performed on an LSM 710 inverted 2-photon confocal microscope equipped with a 40X water immersion objective lens (1.2 NA/280 μM WD/0.208 μM/pixel and a GFP/Alexa 488 filter set. Untransfected HEK293 cells at a confluency of 50–75% were plated onto 35-mm glass bottom dishes one day prior to experiments. The IVM-bdpy fluorophore was dissolved in 100% DMSO and stored at ‐20°C at a concentration of 24 mM.
A Mai Tai eHP 2-photon laser/760-1040 nm was used as an excitation source (power at 920 nm) for the FRAP experiments. The laser and bleaching power were set to 7% and 75% respectively. Membrane partitioning images were taken for 35 min at 0.5 Hz after replacing the cell medium (extracellular solution) with one containing the IVM-bdpy probe at a concentration of 500 nM. FRAP images were taken at a frequency of 0.5 Hz for 10 min after a 30 min equilibration period in 500 nM IVM-bdpy.

α GluClRs = assay: IPSC recording in HEK293-neuron heteroculture, α GluClRs; assay type: cell-based, H. contortus; conditions: 5 nM IVM
Description: cDNAs encoding the α (avr-14b) (pcDNA 3.1+) or β (pUNIV) GluClR subunits of H. contortus were nuclear injected into oocytes (NASCO, WI USA) or transfected into HEK293AD cells (CellBank Australia) using a calcium phosphate-DNA co-precipitate method. Synapse formation between neurons and HEK293 cells was promoted by co-transfecting neuroligin 2A or 1B and the cDNA encoding CD4 surface antigen was also added to the transfection mixture so as to identify transfected cells. The oocytes and HEK cells were used for experiments 2–3 days after the introduction of the cDNAs. All experiments were done at room temperature (22 ± 1°C).
Primary neuronal cultures were prepared from cortices of E18 rat embryos, (University of Queensland Biological Services), which were triturated and plated at 100,000 cells per 18-mm poly-D-lysine-coated coverslip in DMEM with 10% fetal bovine serum. After 24 h the entire medium was replaced with Neurobasal medium that included 2% B27 and 1% GlutaMAX supplements. After one week half of this medium was replaced and the neurons were allowed to grow in vitro for 3–5 weeks before introducing the transfected HEK293 cells. Recordings of synaptic currents were done in whole-cell configuration at ‐70 mV using an Axopatch 200B amplifier (Molecular Devices), filtered at 5 kHz and digitized at 20 kHz using Clampex (pClamp 10 suite, Molecular Devices) via a Digidata 1440A digitizer.

αβ (1:1) GluClRs = αβ (1:1) GluClRs (Haemonchus contortus, UniProt O46124+P91730); assay: Single channel recording, outside-out patches, αβ (1:1) GluClRs; assay type: cell-based, H. contortus; conditions: 2 μM glutamate plus 5 nM IVM
αβ (1:1) GluClRs, sequence (P91730 19-432): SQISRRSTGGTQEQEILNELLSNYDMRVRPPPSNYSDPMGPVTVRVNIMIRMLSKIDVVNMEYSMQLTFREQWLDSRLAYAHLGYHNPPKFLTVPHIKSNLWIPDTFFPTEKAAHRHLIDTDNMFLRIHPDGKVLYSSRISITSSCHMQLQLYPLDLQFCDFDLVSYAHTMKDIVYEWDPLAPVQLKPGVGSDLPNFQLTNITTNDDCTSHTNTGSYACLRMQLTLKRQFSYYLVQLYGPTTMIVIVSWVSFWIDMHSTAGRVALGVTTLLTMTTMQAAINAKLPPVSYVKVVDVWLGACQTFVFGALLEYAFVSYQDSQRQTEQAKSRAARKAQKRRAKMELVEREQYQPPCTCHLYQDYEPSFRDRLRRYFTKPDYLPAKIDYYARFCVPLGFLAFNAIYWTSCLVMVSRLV
αβ (1:1) GluClRs, sequence (O46124 entry or part of it): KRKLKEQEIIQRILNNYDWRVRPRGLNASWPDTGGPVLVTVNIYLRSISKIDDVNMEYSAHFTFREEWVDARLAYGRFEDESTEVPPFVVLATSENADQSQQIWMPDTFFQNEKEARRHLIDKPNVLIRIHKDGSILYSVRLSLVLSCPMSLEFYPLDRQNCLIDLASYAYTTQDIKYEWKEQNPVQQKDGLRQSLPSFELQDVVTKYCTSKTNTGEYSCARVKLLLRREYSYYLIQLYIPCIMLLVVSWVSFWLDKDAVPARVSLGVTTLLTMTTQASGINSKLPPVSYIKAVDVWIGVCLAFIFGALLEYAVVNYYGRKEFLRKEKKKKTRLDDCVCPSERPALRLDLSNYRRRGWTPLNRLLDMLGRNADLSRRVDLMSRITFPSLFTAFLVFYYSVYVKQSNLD
Source text: To explore whether a similar mechanism applies to β-containing GluClRs, we recorded single receptor currents in excised patches from cells transfected with either the α and β subunits (1:1) or the β subunit alone. […] By contrast, patches from cells transfected with the β subunit alone invariably opened to an amplitude of 0.4 pA (Fig 6C). Amplitude histograms confirmed two amplitude levels for αβ GluClRs and a single amplitude for the β GluClRs (Fig 6D). […] We infer that the αβ GluClRs that open to 0.7 pA likely contain a greater proportion of β subunits. This is consistent with β GluClRs having the smallest amplitude and α GluClRs having the greatest amplitude (1.8 pA) under similar recording conditions. The calculated conductance values for the corresponding amplitudes for αβ GluClRs was 15.2 pS and 8.9 pS and for the β GluClRs was 5.1 pS.
Single-channel currents were recorded from outside-out excised patches at a clamped potential of −70 mV. The single channel conductance was calculated by dividing the mean current by the net driving force at a clamped potential of ‐70 mV, after accounting for reversal and liquid junction potentials. Excised patches were continuously perfused via a gravity-fed double-barrelled glass tube, which contained extracellular bath solution containing (in mM), 140 NaCl, 5 KCl, 1 MgCl2, 2 CaCl2, 10 HEPES, and 10 D-glucose and titrated to pH 7.4. Glutamate and IVM were dissolved in this extracellular solution. Recording electrodes were pulled from borosilicate glass (G150F-3; Warner Instruments), coated with a silicone elastomer (Sylgard-184; Dow Corning) and heat-polished to a final tip resistance of 4–15 MΩ when filled with an intracellular solution containing (in mM) 145 CsCl, 2 MgCl2, 2 CaCl2, 10 HEPES, and 5 EGTA, pH 7.4. […] A 10 mM stock of IVM (Sigma-Aldrich) was dissolved in 100% DMSO and kept frozen at ‐20°C. Fresh working stocks of IVM at 5 nM were prepared by dissolving the appropriate quantity directly in extracellular solution. 100% DMSO when dissolved in extracellular solution alone at the same concentration as was present in working solutions containing 5 nM IVM had no effect on patches excised from cells transfected with GluClRs or from untransfected cells.
Currents were recorded using an Axopatch 200B amplifier (Molecular Devices), filtered at 5 kHz and digitized at 20 kHz using Clampex (pClamp 10 suite, Molecular Devices) via a Digidata 1440A digitizer.
Group data were analysed in SigmaPlot 13.0 using one-way ANOVAs, where p < 0.05 was taken as the significance threshold and expressed as mean ± SEM. Tests for normally distributed data are built into the SigmaPlot software. Confocal images were captured and analysed with Zen 2012 SP2 (Zeiss) software. Oocyte concentration-response data were fit to a Hill equation to obtain an EC50 and Hill co-efficient for each oocyte recording. These parameters were then averaged across multiple oocyte experiments of the same type. Single channel recordings were analysed in QuB software. […] Patches yielded between 30–250 individual active periods. […] The selected critical times eliminated periods of receptor desensitisation while retaining singe receptor active periods. Mean active period duration and intra-activation open probability was estimated from each patch. Group means were obtained by averaging across multiple patches for each recording condition.

CC[C@H](C)[C@H]1O[C@]2(CC[C@@H]1C)C[C@@H]1C[C@@H](C/C=C(\C)[C@@H](O[C@H]3C[C@H](OC)[C@@H](O[C@H]4C[C@H](OC)[C@@H](O)[C@H](C)O4)[C@H](C)O3)[C@@H](C)/C=C/C=C3\CO[C@@H]4[C@H](O)C(C)=C[C@@H](C(=O)O1)[C@]34O)O2 [IVM, Ivermectin]
lateral diffusion rate [1]: 0.2 μms^−1
IPSC activation (10–90% rise) time (α GluClRs; 15 minutes): 19 ± 1 ms
peak IPSC amplitude (α GluClRs; 15 minutes): 122 ± 39 pA
IPSC decay time constant (α GluClRs; 15 minutes after start of application, −70 mV): 100 ± 3 ms
increase in mean active period duration compared to 2 μM glutamate alone (αβ (1:1) GluClRs): over 20 fold
increase in mean active period duration compared to 3 mM glutamate (αβ (1:1) GluClRs): 6 fold
intra-activation open probability (PO) (αβ (1:1) GluClRs): 0.83 ± 0.02
mean active period duration (αβ (1:1) GluClRs; pooled): 876 ± 178 ms
